{"source": "ChEMBL document CHEMBL3044874", "about": "“Synthesis and characterization of some heterocyclic schiff bases: potential anticonvulsant agents” (Med Chem Res, 2011)", "key": {"[1]": {"tested_on": "Mus musculus", "test": "Anticonvulsant activity in Mus musculus Swiss albino (mouse) assessed as protection against maximal electroshock-induced seizure at 300 mg/kg, ip measured at 4 hr", "type": "functional, organism-based", "design": "dose 300 mg/kg"}, "[2]": {"tested_on": "Mus musculus", "test": "Anticonvulsant activity in ip dosed Mus musculus Swiss albino (mouse) assessed as protection against pentylenetetrazole-induced seizure", "type": "functional"}, "[3]": {"tested_on": "Mus musculus", "test": "Anticonvulsant activity in Mus musculus Swiss albino (mouse) assessed as protection against strychnine-induced seizure at 300 mg/kg, ip measured at 4 hr", "type": "functional, organism-based", "design": "dose 300 mg/kg"}, "[4]": {"test": "Protection index, ratio TD50 for neurotoxicity to ED50 for protection against maximal electroshock-induced seizure in Mus musculus Swiss albino (mouse)", "type": "toxicity, organism-based", "settings": "in vivo, read-out: Ratio TD50/ED50"}, "[5]": {"tested_on": "Mus musculus", "test": "Anticonvulsant activity in ip dosed Mus musculus Swiss albino (mouse) assessed as protection against pentylenetetrazole-induced seizure at 0.5 hr", "type": "functional", "settings": "read-out: MED"}, "[6]": {"tested_on": "Mus musculus", "test": "Neurotoxicity against Mus musculus Swiss albino (mouse) at 300 mg/kg, ip measured at 4 hr by rota rod test", "type": "toxicity, organism-based", "design": "dose 300 mg/kg, route intraperitoneal", "settings": "in vivo"}, "[7]": {"test": "Neurotoxicity against ip dosed Mus musculus Swiss albino (mouse) by rota rod test", "type": "toxicity, organism-based", "settings": "in vivo"}, "[8]": {"tested_on": "Mus musculus", "test": "Anticonvulsant activity in Mus musculus Swiss albino (mouse) assessed as protection against maximal electroshock-induced seizure at 300 mg/kg, ip", "type": "functional, organism-based", "design": "dose 300 mg/kg"}, "[9]": {"tested_on": "Mus musculus", "test": "Anticonvulsant activity in ip dosed Mus musculus Swiss albino (mouse) assessed as protection against pentylenetetrazole-induced seizure at 4 hr", "type": "functional", "settings": "read-out: MED"}, "[10]": {"tested_on": "Mus musculus", "test": "Anticonvulsant activity in Mus musculus Swiss albino (mouse) assessed as protection against maximal electroshock-induced seizure at 300 mg/kg, ip measured at 0.5 hr", "type": "functional, organism-based", "design": "dose 300 mg/kg"}, "[11]": {"tested_on": "Mus musculus", "test": "Anticonvulsant activity in Mus musculus Swiss albino (mouse) assessed as protection against strychnine-induced seizure at 300 mg/kg, ip measured at 0.5 hr", "type": "functional, organism-based", "design": "dose 300 mg/kg"}, "[12]": {"tested_on": "Mus musculus", "test": "Anticonvulsant activity in Mus musculus Swiss albino (mouse) assessed as protection against strychnine-induced seizure at 300 mg/kg, ip", "type": "functional, organism-based", "design": "dose 300 mg/kg"}, "[13]": {"tested_on": "Mus musculus", "test": "Neurotoxicity against Mus musculus Swiss albino (mouse) at 300 mg/kg, ip measured at 0.5 hr by rota rod test", "type": "toxicity, organism-based", "design": "dose 300 mg/kg, route intraperitoneal", "settings": "in vivo"}, "[14]": {"tested_on": "Mus musculus", "test": "Anticonvulsant activity in ip dosed Mus musculus Swiss albino (mouse) assessed as protection against maximal electroshock-induced seizure at 0.5 hr", "type": "functional", "settings": "read-out: MED"}, "[15]": {"tested_on": "Rattus norvegicus", "test": "Anticonvulsant activity in Rattus norvegicus Wistar (rat) assessed as protection against maximal electroshock-induced seizure at 30 mg/kg, po measured at 0.5 hr", "type": "functional, organism-based", "design": "dose 30 mg/kg"}, "[16]": {"tested_on": "Mus musculus", "test": "Anticonvulsant activity in Mus musculus Swiss albino (mouse) assessed as protection against pentylenetetrazole-induced seizure at 300 mg/kg, ip", "type": "functional, organism-based", "design": "dose 300 mg/kg"}, "[17]": {"tested_on": "Mus musculus", "test": "Anticonvulsant activity in ip dosed Mus musculus Swiss albino (mouse) assessed as protection against maximal electroshock-induced seizure at 4 hr", "type": "functional", "settings": "read-out: MED"}, "[18]": {"tested_on": "Mus musculus", "test": "Anticonvulsant activity in ip dosed Mus musculus Swiss albino (mouse) assessed as protection against strychnine-induced seizure", "type": "functional"}, "[19]": {"tested_on": "Mus musculus", "test": "Anticonvulsant activity in ip dosed Mus musculus Swiss albino (mouse) assessed as protection against maximal electroshock-induced seizure", "type": "functional"}, "[20]": {"tested_on": "Rattus norvegicus", "test": "Anticonvulsant activity in Rattus norvegicus Wistar (rat) assessed as protection against maximal electroshock-induced seizure at 30 mg/kg, po measured at 1 hr", "type": "functional, organism-based", "design": "dose 30 mg/kg"}, "[21]": {"tested_on": "Rattus norvegicus", "test": "Anticonvulsant activity in Rattus norvegicus Wistar (rat) assessed as protection against maximal electroshock-induced seizure at 30 mg/kg, po measured at 4 hr", "type": "functional, organism-based", "design": "dose 30 mg/kg"}, "[22]": {"tested_on": "Mus musculus", "test": "Anticonvulsant activity in ip dosed Mus musculus Swiss albino (mouse) assessed as protection against strychnine-induced seizure at 4 hr", "type": "functional", "settings": "read-out: MED"}, "[23]": {"tested_on": "Mus musculus", "test": "Anticonvulsant activity in ip dosed Mus musculus Swiss albino (mouse) assessed as protection against strychnine-induced seizure at 0.5 hr", "type": "functional", "settings": "read-out: MED"}, "[24]": {"tested_on": "Rattus norvegicus", "test": "Anticonvulsant activity in Rattus norvegicus Wistar (rat) assessed as protection against maximal electroshock-induced seizure at 30 mg/kg, po measured at 0.25 hr", "type": "functional, organism-based", "design": "dose 30 mg/kg"}, "[25]": {"tested_on": "Rattus norvegicus", "test": "Anticonvulsant activity in Rattus norvegicus Wistar (rat) assessed as protection against maximal electroshock-induced seizure at 30 mg/kg, po measured at 2 hr", "type": "functional, organism-based", "design": "dose 30 mg/kg"}, "[26]": {"tested_on": "Mus musculus", "test": "Neurotoxicity against ip dosed Mus musculus Swiss albino (mouse) at 4 hr by rota rod test", "type": "toxicity, organism-based", "settings": "in vivo"}, "[27]": {"tested_on": "Mus musculus", "test": "Neurotoxicity against ip dosed Mus musculus Swiss albino (mouse) at 0.5 hr by rota rod test", "type": "toxicity, organism-based", "settings": "in vivo"}}, "note": "The source made the active and inactive calls. The rule behind the calls is not given here.", "data": [{"compound": "c1cncc(CN=C2CCCCC2)c1", "values": [{"measurement": "Activity", "setting": "[1]", "value": "inactive"}, {"measurement": "ED50", "setting": "[2]", "value": 14.2, "unit": "mg/kg"}, {"measurement": "Activity", "setting": "[3]", "value": "inactive"}, {"measurement": "selectivity ratio", "setting": "[4]", "value": "> 10"}, {"measurement": "minimal effective dose", "setting": "[5]", "value": 30, "unit": "mg/kg"}, {"measurement": "Activity", "setting": "[6]", "value": "Non-toxic"}, {"measurement": "TD50", "setting": "[7]", "value": "> 500", "unit": "mg/kg"}, {"measurement": "Activity", "setting": "[8]", "value": "inactive"}, {"measurement": "minimal effective dose", "setting": "[9]", "value": 30, "unit": "mg/kg"}, {"measurement": "Activity", "setting": "[10]", "value": "inactive"}, {"measurement": "Activity", "setting": "[11]", "value": "inactive"}, {"measurement": "Activity", "setting": "[12]", "value": "inactive"}, {"measurement": "Activity", "setting": "[13]", "value": "Non-toxic"}]}, {"compound": "O=[N+]([O-])c1ccc(/C=N/Cc2cccnc2)cc1", "values": [{"measurement": "minimal effective dose", "setting": "[14]", "value": 100, "unit": "mg/kg"}, {"measurement": "Activity", "setting": "[15]", "value": "inactive"}, {"measurement": "Activity", "setting": "[16]", "value": "inactive"}, {"measurement": "minimal effective dose", "setting": "[17]", "value": 100, "unit": "mg/kg"}, {"measurement": "ED50", "setting": "[18]", "value": 22.2, "unit": "mg/kg"}, {"measurement": "ED50", "setting": "[19]", "value": 61.4, "unit": "mg/kg"}, {"measurement": "Activity", "setting": "[20]", "value": "inactive"}, {"measurement": "selectivity ratio", "setting": "[4]", "value": "> 10"}, {"measurement": "Activity", "setting": "[21]", "value": "inactive"}, {"measurement": "minimal effective dose", "setting": "[22]", "value": 100, "unit": "mg/kg"}, {"measurement": "minimal effective dose", "setting": "[5]", "value": 100, "unit": "mg/kg"}, {"measurement": "Activity", "setting": "[6]", "value": "Non-toxic"}, {"measurement": "TD50", "setting": "[7]", "value": "> 500", "unit": "mg/kg"}, {"measurement": "minimal effective dose", "setting": "[23]", "value": 30, "unit": "mg/kg"}, {"measurement": "minimal effective dose", "setting": "[9]", "value": 300, "unit": "mg/kg"}, {"measurement": "Activity", "setting": "[24]", "value": "inactive"}, {"measurement": "Activity", "setting": "[25]", "value": "inactive"}, {"measurement": "Activity", "setting": "[13]", "value": "Non-toxic"}]}, {"compound": "C(=N\\Cc1cccnc1)/c1c[nH]c2ccccc12", "values": [{"measurement": "Activity", "setting": "[1]", "value": "inactive"}, {"measurement": "minimal effective dose", "setting": "[14]", "value": 300, "unit": "mg/kg"}, {"measurement": "ED50", "setting": "[2]", "value": 6.47, "unit": "mg/kg"}, {"measurement": "selectivity ratio", "setting": "[4]", "value": "> 10"}, {"measurement": "minimal effective dose", "setting": "[22]", "value": 100, "unit": "mg/kg"}, {"measurement": "minimal effective dose", "setting": "[5]", "value": 30, "unit": "mg/kg"}, {"measurement": "TD50", "setting": "[7]", "value": "> 500", "unit": "mg/kg"}, {"measurement": "MTC", "setting": "[26]", "value": 100, "unit": "mg/kg"}, {"measurement": "Activity", "setting": "[8]", "value": "inactive"}, {"measurement": "MTC", "setting": "[27]", "value": 100, "unit": "mg/kg"}, {"measurement": "minimal effective dose", "setting": "[23]", "value": 300, "unit": "mg/kg"}, {"measurement": "minimal effective dose", "setting": "[9]", "value": 30, "unit": "mg/kg"}, {"measurement": "Activity", "setting": "[12]", "value": "inactive"}]}, {"compound": "CC12CCC(C/C1=N/Cc1cccnc1)C2(C)C", "note": "(stereo not given)", "values": [{"measurement": "Activity", "setting": "[1]", "value": "inactive"}, {"measurement": "ED50", "setting": "[2]", "value": 32.2, "unit": "mg/kg"}, {"measurement": "Activity", "setting": "[3]", "value": "inactive"}, {"measurement": "selectivity ratio", "setting": "[4]", "value": 5.45}, {"measurement": "minimal effective dose", "setting": "[5]", "value": 30, "unit": "mg/kg"}, {"measurement": "Activity", "setting": "[6]", "value": "Non-toxic"}, {"measurement": "TD50", "setting": "[7]", "value": 176, "unit": "mg/kg"}, {"measurement": "Activity", "setting": "[8]", "value": "inactive"}, {"measurement": "MTC", "setting": "[27]", "value": 300, "unit": "mg/kg"}, {"measurement": "minimal effective dose", "setting": "[9]", "value": 100, "unit": "mg/kg"}, {"measurement": "Activity", "setting": "[10]", "value": "inactive"}, {"measurement": "Activity", "setting": "[11]", "value": "inactive"}, {"measurement": "Activity", "setting": "[12]", "value": "inactive"}]}, {"compound": "COc1ccc(/C=N/Cc2cccnc2)cc1OC", "values": [{"measurement": "Activity", "setting": "[1]", "value": "inactive"}, {"measurement": "minimal effective dose", "setting": "[14]", "value": 300, "unit": "mg/kg"}, {"measurement": "ED50", "setting": "[2]", "value": 11.7, "unit": "mg/kg"}, {"measurement": "Activity", "setting": "[3]", "value": "inactive"}, {"measurement": "selectivity ratio", "setting": "[4]", "value": "> 10"}, {"measurement": "minimal effective dose", "setting": "[5]", "value": 30, "unit": "mg/kg"}, {"measurement": "Activity", "setting": "[6]", "value": "Non-toxic"}, {"measurement": "TD50", "setting": "[7]", "value": "> 500", "unit": "mg/kg"}, {"measurement": "Activity", "setting": "[8]", "value": "inactive"}, {"measurement": "minimal effective dose", "setting": "[9]", "value": 30, "unit": "mg/kg"}, {"measurement": "Activity", "setting": "[11]", "value": "inactive"}, {"measurement": "Activity", "setting": "[12]", "value": "inactive"}, {"measurement": "Activity", "setting": "[13]", "value": "Non-toxic"}]}]}
